Experimental data from patent publication US20100179225A1, “POI Prevention” (CYTOKINE PHARMASCIENCES, INC., priority 2008, published 2010).

Assays:
p38-MAPK [1] = assay: p38-MAPK phosphorylation in ME lysates after intestinal manipulation (immunoblot); type: in vivo, C57BL/6J mice; conditions: 5 mg/kg i.v. preoperative; 30 minutes after operation; compared to placebo group
Excerpt: (§1) The small bowel of the animals was subjected to a standardized, surgical manipulation (IM) as described previously (Kalff J C, Schraut W H, Simmons R L et al. Surgical manipulation of the gut elicits an intestinal muscularis inflammatory response resulting in postsurgical ileus. Ann Surg 1998; 228:652-663; Wehner S, Schwarz N T, Hundsdoerfer R et al. Induction of IL-6 within the rodent intestinal muscularis after intestinal surgical stress. Surgery 2005; 137:436-446). In brief, after anesthesia a midline abdominal incision was made into the peritoneal cavity. The entire small bowel was eventuated and manipulated with standardized moderate intensity using two moist cotton applicators as described previously. After IM, the laparotomy was closed by one layer of continuous suture, except when probe sampling was conducted within 20 minutes after surgery. […]
p38-MAPK and JNK/SAPK phosphorylation were analyzed in C57BL/6J mice 15, 30 and 60 minutes after IM and in unoperated controls. […] Finally, the sonicated samples were centrifuged at 13.000×g for 10 minutes, and total protein concentration was determined with Pierce BCA protein assay (Perbio, Bonn, Germany). […]
After PAGE, proteins were blotted on Immobilon-P […] PVDF membranes. […] Chemiluminscence signals were detected with a LAS 4000 system (Fujifilm, Duesseldorf, Germany).

p38-MAPK [2] = assay: p38-MAPK activation in CSF-1 mutant op−/− mice (Pathscan-Phospho-p38α-ELISA); type: in vivo; conditions: 5 mg/kg i.v. preoperative, 20 minutes after IM, mean±SEM
Excerpt: Male C57BL/6J mice ([…] bodyweight) were obtained from Harlan-Winkelmann (Borchen, Germany). CSF-1 mutant op−/− mice (strain B6C3Fe a/a-Csf1op) and populations of unknown heterozygous or wildtype genotype (op+/?) of mixed gender were used at an age of 6 weeks and bred as described before (Wehner S, Behrendt F F, Lyutenski B N et al. Inhibition of macrophage function prevents intestinal inflammation and postoperative ileus in rodents. Gut 2007; 56:176-185). op−/− mice were phenotyped by the absence of incisors at day P10. All experiments were performed in accordance with the federal law regarding the protection of animals. The principles of laboratory animal care were followed. Animals were maintained on a 12-hour light/dark cycle and provided with commercially available rodent chow and tap water ad libitum.
p38-MAPK phosphorylation was evaluated in unoperated homozygous colony stimulating factor-1 mutant mice (op−/−) mice, or in op−/− and op+/? mice (a mixed population of unknown heterozygous +/− or homozygous +/+ wildtype mice) 20 minutes after IM. […] Additionally, CNI-1493 (5 mg/kg) pretreated op−/− mice were analyzed. In this experiment, p38-MAPK phosphorylation was quantified by the Pathscan-Phospho-p38α-ELISA following manufacturer's instructions. Phospho-p38 content of each probe was determined in duplicate from lysates with 6.25 μg total protein content.

IL-6 mRNA = assay: Proinflammatory gene expression in ME, real-time RT-PCR: IL-6; type: in vivo, mice; conditions: 5 mg/kg i.v. preoperative; 6 hours after IM; vs placebo IM
Excerpt: as §1, with “cavity.” for “cavity. The entire small bowel was eventuated and manipulated with standardized moderate intensity using two moist cotton applicators as described previously. After IM, the laparotomy was closed by one layer of continuous suture, except when probe sampling was conducted within 20 minutes after surgery.”
Proinflammatory gene expression was analyzed in placebo and CNI-1493 (5 mg/kg) treated animals at 1, 3, 6 and 24 hours after operation; n=5-7 each group. […] Total RNA was analyzed in ME specimen that was prepared as described before (Wehner S, Behrendt F F, Lyutenski B N et al. Inhibition of macrophage function prevents intestinal inflammation and postoperative ileus in rodents. Gut 2007; 56:176-185). […] Expression of mRNA was quantified in triplicate by a RT-PCR with gene expression assays for […] (MCP-1; #Mm00441242_m1), CCL3 (MIP-1α #Mm00441258_m1), IL-6 (Assay ID #Mm00446190_ml), TNF-α (#Mm00443258_m1) and ICAM-1 (#Mm00516023_m1). […] Data quantification was performed by the ΔΔCT method. […]

C/C(=N\N=C(N)N)c1cc(NC(=O)CCCCCCCCC(=O)Nc2cc(/C(C)=N/N=C(N)N)cc(/C(C)=N/N=C(N)N)c2)cc(/C(C)=N/N=C(N)N)c1.Cl.Cl.Cl.Cl [CNI-1493]
upregulation of p38-MAPK phosphorylation by IM (p38-MAPK [1]): reduced near to control levels
p38-MAPK phosphorylation levels (phospho-p38 ELISA) (p38-MAPK [2]): 3.24±0.66
IL-6 expression diminished (IL-6 mRNA): more than 55%
